Type in all cases: in vivo, mouse
The test system of test [1] is α-SMA. The experiment in a line: Immunohistochemistry of end-point KPC tumors: myCAF marker. The settings on record: for Percent coverage of aSMA positive staining: Extended Data 6B, KPC tumours at endpoint, individual FOV. On the procedure: (§1) All tissues or matrices, including patient TMAs, were fixed in 10% buffered formalin and embedded in paraffin. The 4-μm sections of samples were deparaffinized with xylene and rehydrated in graded ethanol washes. For immunohistochemistry, Bond Dewax Solution (AR9222) was used. Antigen retrieval was performed using Bond RX H2(30) protocol: HIER 30 min ER1 (citrate pH 6) OR ER2 (EDTA pH 9) at 100 °C. Slides were quenched in BOND Polymer Refine Detection (Leica Biosystems DS9800). […] Slides were digitized on an Aperio slide scanner and representative areas per tumor acquired and analyzed by researchers blinded to the conditions of the experiment.
(§2) Extended Data Fig. 6 PXS-5505 in combination with gemcitabine in a KPC model. a. Quantification of proliferating cells (Ki67 positive nuclear staining) in KPC tumors at end point, treated as indicated. 5 fields of view (500 μm × 500 μm) per mouse and 10 mice per cohort were scored. […] Quantification of percent coverage of αSMA positive staining in KPC tumors at end point, treated as indicated. 3 fields of view (1000 μm × 1000 μm) per mouse and 10 mice per cohort were scored. […] Quantification of percent coverage of PDGFR-ß positive staining in KPC tumors at end point, treated as indicated. 3 fields of view (1000 μm × 1000 μm) per mouse and 10 mice per cohort were scored. […] Quantification of pMLC2 positive staining in stromal regions of KPC tumors at end point, treated as indicated. 3 fields of view (500 μm × 500 μm) per mouse and 10 mice per cohort were scored. […] Quantification of tumor vasculature (CD31 positive staining) in KPC tumors at end point, treated as indicated. 3 fields of view (1000 μm × 1000 μm) per mouse and 10 mice per cohort were scored. […] Quantification of STAT3 activation (pSTAT3 positive nuclear staining) in KPC tumors at end point, treated as indicated. 3 fields of view (1000 μm × 1000 μm) per mouse and 5 mice per cohort were scored. […] Scale bars = 100 μm. g Quantification of macrophage infiltration (F4/80 positive staining) in KPC tumors at end point, treated as indicated. […]

In test [2] the test system is CD31. The experiment in a line: Immunohistochemistry of end-point KPC tumors: tumor vasculature. Conditions: for Quantification of tumour vasculature (CD31 positive staining): Extended Data 6E, KPC tumours at endpoint, individual FOV. On the procedure:
as §1, §2

Test [3] deals with pSTAT3. Briefly: Immunohistochemistry of end-point KPC tumors: STAT3 activation. The settings on record: for Quantification of STAT3 activation (pSTAT3 positive nuclear staining): Extended Data 6F, KPC tumours at endpoint, individual FOV. How it is done: as §1, §2

Several values for one entry are separate records, joined by “and”; a condition that tells them apart may be missing. Equal values may be shown once.

Consider `Cl.Cl.NC/C=C(\F)CS(=O)(=O)c1cccc2cccnc12.O` [PXS-5505, (Z)-3-fluoro-4-(quinolin-8-ylsulfonyl)but-2-en-1-amine dihydrochloride monohydrate], for which the “Percent coverage of aSMA positive staining” value in test [1] was 3.0735% and 6.2874% and 6.4326% and 3.0495% and 2.5796% and 2.9175% and 6.2269% and 8.7759% and 5.9209% and 8.6578% and 7.7662% and 8.3469% and 5.6452% and 6.7775% and 4.6186% and 7.36% and 5.232% and 2.4577% and 4.7266% and 9.579% and 5.032% and 5.1635% and 4.6717% and 8.3034% and 3.41% and 6.5089% and 4.6457% and 1.885% and 5.2516% and 5.0893%. Besides, in test [2], the “Quantification of tumour vasculature (CD31 positive staining)” value is 1.4669 and 1.052 and 0.7167 and 1.5204 and 1.7208 and 1.2357 and 2.5692 and 2.5978 and 2.6637 and 1.5089 and 2.7227 and 2.2335 and 3.0895 and 2.1825 and 1.7906 and 0.381 and 0.3483 and 0.8882 and 1.0908 and 1.998 and 0.3729 and 1.0662 and 0.7486 and 0.544 and 1.3597 and 1.732 and 1.5892 and 0.9619 and 1.2706 and 1.8307. For the same molecule, in test [3], the “Quantification of STAT3 activation (pSTAT3 positive nuclear staining)” value is 2.225 and 1.368 and 3.504 and 0.042 and 0 (2×) and 3.991 and 1.153 and 0.6262 and 11.8493 and 3.81 and 4.532 and 0.05376.
Take `Nc1ccn([C@@H]2O[C@H](CO)[C@@H](O)C2(F)F)c(=O)n1` [Gem, gemcitabine]: the “Percent coverage of aSMA positive staining” value in test [1] was 4.1422% and 8.8428% and 3.9128% and 4.9851% and 3.7908% and 3.4102% and 13.5235% and 10.8353% and 9.6686% and 1.9907% and 2.1823% and 5.2926% and 3.0437% and 5.4036% and 4.2058% and 8.1217% and 4.3012% and 3.1567% and 3.0046% and 1.1246% and 5.0654% and 7.8034% and 8.097% and 1.0094% and 7.1387% and 7.3633% and 7.7939% and 1.1199% and 2.3003% and 3.6904%. In test [1] (KPC tumors at end point), the α-SMA positivity entry is reported as “small decreases in positivity”. In test [2], the “Quantification of tumour vasculature (CD31 positive staining)” value is 0.7299 and 0.7671 and 1.094 and 0.1238 and 0.9491 and 1.4885 and 2.0289 and 0.3988 and 1.306 and 1.1528 and 0.8514 and 0.5685 and 1.3159 and 1.5073 and 0.7452 and 2.699 and 3.9605 and 1.2028 and 1.6599 and 0.7292 and 1.2066 and 0.7182 and 1.9396 and 0.8792 and 0.4356 and 0.528 and 0.6666 and 0.9682 and 1.0035 and 1.0817. Also, the CD31 positivity result in test [2] (KPC tumors at end point) is given as “moderately reduce CD31 positivity”. Further, the “Quantification of STAT3 activation (pSTAT3 positive nuclear staining)” value in test [3] was 1.773 and 0.7075 and 2.095 and 2.515 and 2.91 and 1.454 and 7.421 and 2.089 and 1.705 and 5.289 and 6.71 and 3.256 and 6.948 and 7.388 and 6.1144. Also, the pSTAT3-positive nuclear staining entry in test [3] (KPC tumors at end point) was “significantly increased levels of pSTAT3-positive staining”.

The record behind these values is publication PMC10518255, “A first-in-class pan-lysyl oxidase inhibitor impairs stromal remodeling and enhances gemcitabine response and survival in pancreatic cancer” (Nature Cancer, 2023).
